Test results reported in paper PMC7059199, “Identification and structural insight of an effective PPARγ modulator with improved therapeutic index for anti-diabetic drug discovery” (Chemical Science, 2020).

Legend:
PPARδ = molecular target: T1, PPARδ (Homo sapiens, UniProt Q03181); assay: Competitive TR-FRET assay, PPARδ; conditions: even at 100 μM
T1 sequence (Q03181 1-441): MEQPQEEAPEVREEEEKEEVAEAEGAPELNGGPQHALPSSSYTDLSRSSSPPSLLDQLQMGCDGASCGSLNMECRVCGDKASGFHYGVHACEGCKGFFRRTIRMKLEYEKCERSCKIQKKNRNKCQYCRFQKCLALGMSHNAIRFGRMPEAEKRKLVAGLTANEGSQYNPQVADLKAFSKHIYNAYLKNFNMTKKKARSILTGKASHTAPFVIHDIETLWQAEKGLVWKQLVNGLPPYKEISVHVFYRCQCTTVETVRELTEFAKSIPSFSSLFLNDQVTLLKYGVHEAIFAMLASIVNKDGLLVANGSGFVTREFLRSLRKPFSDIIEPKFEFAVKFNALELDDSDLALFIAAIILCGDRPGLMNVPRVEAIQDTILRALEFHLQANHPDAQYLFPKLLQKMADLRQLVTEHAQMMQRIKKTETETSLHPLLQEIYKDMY

full-length hPPARγ = molecular target: T2, full-length hPPARγ (Homo sapiens, UniProt P37231); assay: PPARγ-activated luciferase reporter (transactivation) assay in Cos-7 cells; assay type: cell-based; conditions: at 33 μM and 100 μM
T2 construct: 50 ng of full-length hPPARγ plasmids; expressed in transfected cells; host or cells: Cos-7 cells (ATCC)
T2 sequence (P37231 1-505): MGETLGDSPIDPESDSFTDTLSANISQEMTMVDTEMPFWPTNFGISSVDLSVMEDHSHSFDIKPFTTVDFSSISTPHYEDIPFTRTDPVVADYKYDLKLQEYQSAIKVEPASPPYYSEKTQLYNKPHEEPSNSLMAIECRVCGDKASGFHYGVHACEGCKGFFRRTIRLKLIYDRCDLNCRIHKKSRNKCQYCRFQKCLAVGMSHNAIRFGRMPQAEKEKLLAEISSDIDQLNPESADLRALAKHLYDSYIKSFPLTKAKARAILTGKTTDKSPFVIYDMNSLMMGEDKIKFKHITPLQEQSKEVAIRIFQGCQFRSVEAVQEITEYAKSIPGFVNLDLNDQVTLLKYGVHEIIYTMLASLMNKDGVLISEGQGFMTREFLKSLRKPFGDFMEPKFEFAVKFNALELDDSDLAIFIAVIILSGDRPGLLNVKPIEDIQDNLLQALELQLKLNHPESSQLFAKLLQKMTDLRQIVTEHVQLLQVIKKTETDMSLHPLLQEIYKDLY
Procedure: Fig. 3 Luciferase reporter assay of PPARγ activation in Cos-7 cells. The luciferase activity was normalized against renilla luciferase units. Fold activation was calculated against DMSO with no ligand treatment. […] Concentration is represented as log10 scale (n = 3, error bars = SEM). […]
and 25 mM of imidazole) per 6 liters of cells, and passed three times through a French press with pressure set at […]. The lysate was cleared by centrifugation at 48,000 x g for 30 minutes and the supernatant was purified by loading on 2x5 mL HiLoad Nickel HP columns (GE Healthcare). The 6×His SUMO tag was removed by cleavage with the Sumo protease Ulp1 at a protease: protein ratio of 1:1000), and the tag was separated from the PPARγ LBD by a second pass through the Nickel column. PPARγ monomer was further purified by gel filtration (HiLoad 26/60 Superdex 200 (GE Healthcare)) with 20 mM of Tris (pH 8.0), 100 mM of NaCl, and 5 mM of DTT as buffer. The PPARγ LBD protein was complexed with PGC1α1 peptide […]
([…]) at a 1:1.2 molar ratio and with compound at a 1:5 molar ratio and then filter-concentrated to 10 mg/mL.
Cell-based transactivation assay […]
Excitation of the terbium at 340 nm results in FRET to the fluorescent tracer, with emissions detected at 520 nm and 495 nm. […]
The inhibition constant (ki) for a competitor was calculated by applying the […]

3T3-L1 cells = assay: 3T3-L1 adipocyte differentiation assay (Oil Red O staining); assay type: cell-based, mouse
Procedure: One of the best documented side-effects of the PPARγ agonist drugs is weight gain as PPARγ is the key activator of adipogenesis. To determine whether VSP-77 promotes adipogenesis, we treated mouse fibroblast 3T3-L1 cells with 100 μM of VSP-77. […] Cells were incubated with Oil Red O, which stains adipocytes red.
Fig. 6 3T3-L1 adipocyte differentiation assay. Oil Red O staining of 3T3-L1 fibroblast cells after differentiating with different ligands for 2 days. […]
Adipocyte differentiation assay
The adipocyte differentiation assay was performed with NIH 3T3-L1 preadipocytes obtained from ATCC. The 3T3-L1 preadipocytes were maintained in DMEM containing 10% FBS and antibiotics. For differentiation DMI (Dexamethazone 1 μM, 3-isobutyl-1-methyxanthine (IBMX) 0.5 mM and Insulin167 nM) and 10 μM of rosiglitazone were used as positive controls for the assay. VSP-77 was used at a 100 μM concentration. All the treatments have insulin at 167 nM concentration. Media with DMSO was used as a negative control. Differentiation was induced by treating post-confluent cultures with media containing the respective ligands for two days.
Cells were stained with Oil Red O to estimate the lipid accumulation. The images were analyzed using ImageJ (National Institutes of Health). […]

HFD mice = assay: Anti-diabetic activity in high-fat diet (HFD) mice, 10 days; assay type: in vivo, C57BL/6J mice

`CCCCCCCC(OCC(=O)O)c1ccc(Cl)cc1` (stereo not shown) [VSP-77] was tested, and the “effect on PPARδ (in words)” value (PPARδ) was “no obvious effects”, the “agonistic activity (fold activation of luciferase reporter)” value (full-length hPPARγ) was “weakly agonistic” and the “adipogenesis (in words)” value (3T3-L1 cells; 100 μM) was “does not activate adipogenesis”. For the same compound, the “total number of adipocytes when added to DMI- or Rosi-treated cells” value (3T3-L1 cells; VSP-77 100 μM) was “clear decrease”, the “% Area stained by Oil Red O” value (3T3-L1 cells; VSP-77 100 μM, 2 days) was 0% and the “expression of key adipogenesis-related genes in adipose tissue” value (HFD mice) was “does not induce”. The “Cdk5-mediated phosphorylation of PPARγ at Ser-273 in adipose tissue” value (HFD mice; 5 mg/kg i.p.) was “decrease”, the “body weight and food intake compared to vehicle-treated mice” value (HFD mice; 5 mg/kg i.p.) was “without significant differences” and the “expression of glut4 and adiponectin in adipose tissue” value (HFD mice; 5 mg/kg i.p.) was “selectively induced”. For the same compound, the fasting insulin levels (HFD mice; 5 mg/kg i.p.) was “significant reduction”, the glucose levels (HFD mice; 5 mg/kg i.p.) was “lowered” and the “insulin resistance (HOMA-IR)” value (HFD mice; 5 mg/kg i.p.) was “clear and dose-dependent improvement”. The “organ / fat weight” value (HFD mice; 5 mg/kg i.p.) was “selectively decreased subcutaneous and perirenal fats”.
